The values that follow come from ChEMBL document CHEMBL1151503, “Synthesis of novel ellipticine analogues and their inhibition of Moloney leukaemia reverse transcriptase” (Bioorg Med Chem Lett, 1996).

Set-up in all cases: scale not given: the % may be the effect or the level left
Test [1] deals with Moloney murine leukemia virus reverse transcriptase. Put plainly: Compound was evaluated for inhibition of against moloney leukemia reverse transcriptase at concentration 0.04 mg/mL.
The test system is the same in test [2]. The test is described as follows: Compound was evaluated for inhibition of against moloney leukemia reverse transcriptase at concentration 0 mg/ml.
For test [3] the test system is unchanged. Put plainly: Compound was evaluated for inhibition of against moloney leukemia reverse transcriptase at concentration 0.01 mg/mL.
For test [4] the test system is unchanged. Put plainly: Compound was evaluated for inhibition of against moloney leukemia reverse transcriptase at concentration 0.1 mg/mL.
Test [5] has the same test system. Put plainly: Compound was evaluated for inhibition of against moloney leukemia reverse transcriptase at concentration 0.02 mg/mL.
Test [6] shares this test system. The test is described as follows: Compound was evaluated for inhibition of against moloney leukemia reverse transcriptase at concentration 0.08 mg/mL.

For `Cn1c2ccccc2c2cc3ccccc3c[n+]21`, the Control in test [1] came to 3%; in test [2], 100%; in test [3], 48%; in test [4], 2%; in test [5] it was 30%; in test [6], 1%.

With `Cn1c2ccc(Cl)cc2c2cc3ccccc3c[n+]21`, the Control stood at 3% in test [1]; 100% in test [2]; 78% in test [3]; 2% in test [4]; 30% in test [5]; 1% in test [6].
